Source: patent US6274715A, “Tricyclic erythromycin derivatives” (priority 1997, dated 2001)
≈ marks a conversion by molar mass, not a printed value.

How the values were obtained:
Format in all cases: cell-based
[1] = system: ESCHERICHIA COLI SS; experiment: In vitro antibacterial activity, MIC, BHI agar dilution; settings: E. coli SS, unit assumed
[2] = system: PROVIDENCIA STUARTII CMX 640; settings: P. stuartii CMX 640; BHI agar; unit assumed
[3] = system: STAPHYLOCOCCUS AUREUS 1775; experiment: In vitro antibacterial activity, MIC, BHI agar dilution; settings: S. aureus 1775, unit assumed
[4] = system: PSEUDOMONAS AERUGINOSA BMH10; experiment: as above; settings: P. aeruginosa BMH10, unit assumed
[5] = system: STAPHYLOCOCCUS AUREUS A5177; experiment: as above; settings: S. aureus A5177, unit assumed
[6] = system: PSEUDOMONAS AERUGINOSA K799/61; experiment: as above; settings: P. aeruginosa K799/61, unit assumed
[7] = system: ESCHERICHIA COLI DC-2; experiment: as above; settings: E. coli DC-2, unit assumed
[8] = system: PSEUDOMONAS AERUGINOSA DPHD-5263; experiment: as above; settings: P. aeruginosa DPHD-5263, unit assumed
[9] = system: ESCHERICHIA COLI KNK 437; settings: E. coli KNK 437; BHI agar; unit assumed
[10] = system: STREPTOCOCCUS BOVIS A-5169; experiment: In vitro antibacterial activity, MIC, BHI agar dilution; settings: S. bovis A-5169, unit assumed
[11] = system: KLEBSIELLA PNEUMONIAE ATCC 8045; experiment: as above; settings: K. pneumoniae ATCC 8045, unit assumed
[12] = system: PSEUDOMONAS AERUGINOSA K799/WT; experiment: as above; settings: P. aeruginosa K799/WT, unit assumed
[13] = system: STAPHYLOCOCCUS EPIDERMIDIS 3519; settings: S. epidermidis 3519; BHI agar; unit assumed
[14] = system: STREPTOCOCCUS PYOGENES 930; experiment: In vitro antibacterial activity, MIC, BHI agar dilution; settings: S. pyogenes 930, unit assumed
[15] = system: M[…] ATCC 9341; experiment: as above; settings: M. luteus ATCC 9341, unit assumed
In short: (§1)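 MIC was read visually as the lowest drug level with no growth, a slight haze or sparsely isolated colonies relative to a compound-free growth control. Organisms were spotted at 1:100 dilution (1:10 for slow-growing strains) onto Brain Heart Infusion agar containing serial compound dilutions and incubated 20 to 24 hours at 35-37° C.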

[16] = system: M[…] ATCC 4698; experiment: as above; settings: M. luteus ATCC 4698, unit assumed
In short: as §1

[17] = system: STR[…] 508; experiment: as above; settings: S. agalactiae CMX 508, unit assumed
In short: as §1

[18] = system: EN[…] ATCC 8043; experiment: as above; settings: E. faecium ATCC 8043, unit assumed
In short: as §1

[19] = system: PSEUDOMONAS AERUGINOSA DPHD-2862; experiment: as above; settings: P. aeruginosa DPHD-2862, unit assumed
[20] = system: STREPTOCOCCUS PYOGENES EES61; experiment: as above; settings: S. pyogenes EES61, unit assumed
[21] = system: STREPTOCOCCUS PYOGENES PIU 2548; experiment: as above; settings: S. pyogenes PIU 2548, unit assumed
[22] = system: ESCHERICHIA COLI JUHL; settings: E. coli JUHL; BHI agar; unit assumed
[23] = system: STAPHYLOCOCCUS AUREUS A-5278; experiment: In vitro antibacterial activity, MIC, BHI agar dilution; settings: S. aureus A-5278, unit assumed
[24] = system: ESCHERICHIA COLI H560; experiment: as above; settings: E. coli H560, unit assumed
[25] = system: STAPHYLOCOCCUS AUREUS CMX 642A; experiment: as above; settings: S. aureus CMX 642A, unit assumed
[26] = system: CANDIDA ALBICANS CCH 442; experiment: as above; settings: C. albicans CCH 442, unit assumed
[27] = system: STAPHYLOCOCCUS AUREUS CMX 553; experiment: as above; settings: S. aureus CMX 553, unit assumed
[28] = system: PSEUDOMONAS CEPACIA 296I; experiment: as above; settings: P. cepacia 296I, unit assumed
[29] = system: PSEUDOMONAS AERUGINOSA 5007; experiment: as above; settings: P. aeruginosa 5007, unit assumed
[30] = system: STAPHYLOCOCCUS AUREUS NCTC10649M; experiment: as above; settings: S. aureus NCTC10649M, unit assumed
[31] = system: ENTEROBACTER AEROGENES ATCC 13048; experiment: as above; settings: E. aerogenes ATCC 13048, unit assumed
[32] = system: MYCOBACTERIUM SMEGMATIS ATCC 114; experiment: as above; settings: M. smegmatis ATCC 114, unit assumed
[33] = system: STAPHYLOCOCCUS AUREUS ATCC 6538P; experiment: as above; settings: S. aureus ATCC 6538P, 35-37° C., 20 to 24 hours, unit assumed

| SMILES | MIC [1] [µg/mL] | MIC [2] [µg/mL] | MIC [3] [µg/mL] | MIC [4] [µg/mL] | MIC [5] [µg/mL] | MIC [6] [µg/mL] | MIC [7] [µg/mL] | MIC [8] [µg/mL] | MIC [9] [µg/mL] | MIC [11] [µg/mL] | MIC [12] [µg/mL] | MIC [13] [µg/mL] | MIC [14] [µg/mL] | MIC [15] [µg/mL] | MIC [16] [µg/mL] | MIC [18] [µg/mL] | MIC [19] [µg/mL] | MIC [20] [µg/mL] | MIC [21] [µg/mL] | MIC [22] [µg/mL] | also measured |
| --- | --- | --- | --- | --- | --- | --- | --- | --- | --- | --- | --- | --- | --- | --- | --- | --- | --- | --- | --- | --- | --- |
| CC[C@H]1OC(=O)[C@H](C)C(=O)[C@H](C)[C@@H](O[C@@H]2O[C@H](C)C[C@H](N(C)C)[C@H]2O)[C@](C)(OC)C[C@@H](C)C2=NC3CN(Cc4ccccc4)CC3N3C(=O)O[C@@]1(C)[C@H]3[C@H]2C (stereo partly drawn) [Example 110] | 0.2 (≈ 0.26 µM) | > 100 | > 100 | 50 (≈ 65 µM) | 0.2 (≈ 0.26 µM) | 1.56 (≈ 2.03 µM) | 25 (≈ 32.5 µM) | > 100 | 50 (≈ 65 µM) | > 100 | > 100 | 0.2 (≈ 0.26 µM) | 50 (≈ 65 µM) | 0.05 (≈ 0.065 µM) | 0.78 (≈ 1.01 µM) | 0.05 (≈ 0.065 µM) | > 100 | 0.005 (≈ 0.0065 µM) | 0.2 (≈ 0.26 µM) | 50 (≈ 65 µM) | MIC [10]: 0.02 µg/mL (≈ 0.026 µM); MIC [17]: 0.02 µg/mL (≈ 0.026 µM); MIC [23]: > 100 µg/mL; MIC [24]: 12.5 µg/mL (≈ 16.3 µM); MIC [25]: 0.39 µg/mL (≈ 0.507 µM); MIC [26]: > 100 µg/mL; MIC [27]: 0.2 µg/mL (≈ 0.26 µM); MIC [28]: 50 µg/mL (≈ 65 µM); MIC [29]: > 100 µg/mL |
| CC[C@H]1OC(=O)[C@H](C)C(=O)[C@H](C)[C@@H](O[C@@H]2O[C@H](C)C[C@H](N(C)C)[C@H]2O)[C@](C)(OC)C[C@@H](C)C2=NCC(COC(=O)c3ccnc4ccccc34)N3C(=O)O[C@@]1(C)[C@H]3[C@H]2C (stereo partly drawn) [Example 137] | 0.02 (≈ 0.0243 µM) | 100 (≈ 122 µM) | > 100 | 100 (≈ 122 µM) | 0.02 (≈ 0.0243 µM) | 0.2 (≈ 0.243 µM) | 12.5 (≈ 15.2 µM) | 100 (≈ 122 µM) | 25 (≈ 30.4 µM) | 100 (≈ 122 µM) | 50 (≈ 60.8 µM) | 0.05 (≈ 0.0608 µM) | 6.2 (≈ 7.53 µM) | 0.01 (≈ 0.0122 µM) | 0.2 (≈ 0.243 µM) | 0.01 (≈ 0.0122 µM) | 50 (≈ 60.8 µM) | 0.01 (≈ 0.0122 µM) | 0.2 (≈ 0.243 µM) | 25 (≈ 30.4 µM) | MIC [30]: 0.05 µg/mL (≈ 0.0608 µM); MIC [23]: > 100 µg/mL; MIC [24]: 12.5 µg/mL (≈ 15.2 µM); MIC [25]: 0.05 µg/mL (≈ 0.0608 µM); MIC [31]: 100 µg/mL (≈ 122 µM); MIC [32]: 0.2 µg/mL (≈ 0.243 µM); MIC [26]: > 100 µg/mL; MIC [27]: 0.05 µg/mL (≈ 0.0608 µM); MIC [33]: 0.02 µg/mL (≈ 0.0243 µM); MIC [28]: 50 µg/mL (≈ 60.8 µM); MIC [29]: 100 µg/mL (≈ 122 µM) |
